Strand notation (5' to 3'): a small letter for the sugar, then the base; units joined by * are phosphorothioate-linked, units joined directly phosphodiester-linked; [ ] holds rarer units or linkages, { } end groups; capitals alone tell only the bases. [ms] = mesyl phosphoramidate linkage; e = 2'-O-(2-methoxyethyl) (MOE); k = constrained ethyl (cEt); [5mC] = 5-methylcytosine; d = 2'-deoxy (DNA)
Experiments:
human APOE RNA [1] = test: Activity in APOE C57BL/6NTac-Apoeem7250 knock-in mice, single ICV bolus, 8 weeks (Example 11); type: in vivo; details: single ICV bolus 300 μg, 8 weeks post treatment, normalized to mouse Ppia
Experimental: (§1) Modified oligonucleotides described above were tested in the APOE C57BL/6NTac-Apoeem7250 knock-in mouse model described above.
Each mouse received a single ICV bolus of 300 μg of modified oligonucleotide. A group of 3-4 mice received a single ICV bolus with PBS as a negative control.
(§2) Eight weeks post treatment, mice were sacrificed and RNA was extracted from cortical brain tissue and spinal cord for quantitative real-time RT-PCR analysis of RNA expression of APOE using human primer probe set RTS3073 (described herein above). APOE RNA levels were normalized to mouse Ppia. Mouse Ppia was amplified using primer probe set m_cyclo24 (described herein above). Results are presented as percent human APOE RNA relative to the amount of human APOE RNA in PBS treated animals, (% control). Each experiment is identified in separate tables below.

human APOE RNA [2] = test: Activity in APOE C57BL/6NTac-Apoeem7250 knock-in mice, single ICV bolus, 16 weeks (Example 12); type: in vivo; details: single ICV bolus 300 μg, 16 weeks post treatment, normalized to mouse Ppia
Experimental: as §1
APOE C57BL/6NTac-Apoeem7250 knock-in mice were divided into groups of 3-4 mice each. Each mouse received a single intracerebroventricular (ICV) bolus of 300 μg of modified oligonucleotide. A group of 4 mice received a single ICV bolus with PBS as a negative control.
as §2, with “Sixteen” for “Eight”, “using” for “using human”

Substance	APOE RNA (% control) Cortex (human APOE RNA [1]) [% control]	APOE RNA (% control) Spinal Cord (human APOE RNA [1]) [% control]	APOE RNA (% control) Cortex (human APOE RNA [2]) [% control]	APOE RNA (% control) Spinal Cord (human APOE RNA [2]) [% control]
1809688: mixed MOE/cEt gapmer CTTGGTGAATCTTTATTAA, sugar eeeekddddddddddkkee, linkages sosssszzzssssszoss (e[5mC]*eTeT*eG*kG*dT*dG[ms]dA[ms]dA[ms]dT*d[5mC]*dT*dT*dT*dA[ms]kTkT*eA*eA) [compound 1809688]	22	37		
1809744: mixed MOE/cEt gapmer CTTGGTGAATCTTTATTAAAC, sugar eeeekkddddddddddeeeee, linkages zsoooszzsssssszsoosz (e[5mC][ms]eT*eTeGkGkT*dG[ms]dA[ms]dA*dT*d[5mC]*dT*dT*dT*dA[ms]dT*eTeAeA*eA[ms]e[5mC]) [compound 1809744]	19	11		
1810065: mixed MOE/cEt gapmer CTTGGTGAATCTTTATTAAAC, sugar eeeeekddddddddddeeeee, linkages ssoosszzzssssszsooss (listed as DNA, chemistry not fully specified) [compound 1810065]	29	21		
1652908: 5-10-5 MOE gapmer GGTGAATCTTTATTAAACTA, linkages soooszzzsssssssooss (antisense eG*eGeTeGeA*dA[ms]dT[ms]d[5mC][ms]dT*dT*dT*dA*dT*dT*dA*eAeAe[5mC]*eT*eA) [compound 1652908]	54	18		
1810069: mixed MOE/cEt gapmer CTTGGTGAATCTTTATTAAAC, sugar eeeeekddddddddddeeeee, linkages zsossszzzssssszsoosz (e[5mC][ms]eT*eTeG*eG*kT*dG[ms]dA[ms]dA[ms]dT*d[5mC]*dT*dT*dT*dA[ms]dT*eTeAeA*eA[ms]e[5mC]) [compound 1810069]	24	27		
1693110: 6-10-4 MOE gapmer CTTGGTGAATCTTTATTAAA, linkages sssssszzzsssszzssss (e[5mC]*eT*eT*eG*eG*eT*dG[ms]dA[ms]dA[ms]dT*d[5mC]*dT*dT*dT[ms]dA[ms]dT*eT*eA*eA*eA) [compound 1693110]			113	92
1693057: 5-10-5 MOE gapmer TTGGTGAATCTTTATTAAAC, linkages ssssszzzssssszsosss (antisense eT*eT*eG*eG*eT*dG[ms]dA[ms]dA[ms]dT*d[5mC]*dT*dT*dT*dA[ms]dT*eTeA*eA*eA*e[5mC]) [compound 1693057]			125	101
1693073: 5-10-5 MOE gapmer ACTTGGTGAATCTTTATTAA, linkages sssossszzzzzsssssss (eA*e[5mC]*eT*eTeG*dG*dT*dG[ms]dA[ms]dA[ms]dT[ms]d[5mC][ms]dT*dT*dT*eA*eT*eT*eA*eA) [compound 1693073]			107	52
1693070: 5-10-5 MOE gapmer ACTTGGTGAATCTTTATTAA, linkages ssssssszzzszsssosss (antisense eA*e[5mC]*eT*eT*eG*dG*dT*dG[ms]dA[ms]dA[ms]dT*d[5mC][ms]dT*dT*dT*eAeT*eT*eA*eA) [compound 1693070]			86	76
1693075: 5-10-5 MOE gapmer ACTTGGTGAATCTTTATTAA, linkages ssssssszzzzzsssssss (eA*e[5mC]*eT*eT*eG*dG*dT*dG[ms]dA[ms]dA[ms]dT[ms]d[5mC][ms]dT*dT*dT*eA*eT*eT*eA*eA) [compound 1693075]			87	64
1693046: 5-10-5 MOE gapmer CTTGGTGAATCTTTATTAAA, linkages ssssszzzzzsssssssss (antisense e[5mC]*eT*eT*eG*eG*dT[ms]dG[ms]dA[ms]dA[ms]dT[ms]d[5mC]*dT*dT*dT*dA*eT*eT*eA*eA*eA) [compound 1693046]			106	80
1693074: 5-10-5 MOE gapmer ACTTGGTGAATCTTTATTAA, linkages ssosssszzzzzsssssss (eA*e[5mC]*eTeT*eG*dG*dT*dG[ms]dA[ms]dA[ms]dT[ms]d[5mC][ms]dT*dT*dT*eA*eT*eT*eA*eA) [compound 1693074]			84	71
1693103: 6-10-4 MOE gapmer CTTGGTGAATCTTTATTAAA, linkages sssosszzzssssszssss (e[5mC]*eT*eT*eGeG*eT*dG[ms]dA[ms]dA[ms]dT*d[5mC]*dT*dT*dT*dA[ms]dT*eT*eA*eA*eA) [compound 1693103]			84	56
1693139: 6-10-4 MOE gapmer ACTTGGTGAATCTTTATTAA, linkages ssssssszzzssssszsss (eA*e[5mC]*eT*eT*eG*eG*dT*dG[ms]dA[ms]dA[ms]dT*d[5mC]*dT*dT*dT*dA[ms]eT*eT*eA*eA) [compound 1693139]			92	97
1693079: 6-10-4 MOE gapmer TTGGTGAATCTTTATTAAAC, linkages sssosszzszssszssoss (eT*eT*eG*eGeT*eG*dA[ms]dA[ms]dT*d[5mC][ms]dT*dT*dT*dA[ms]dT*dT*eAeA*eA*e[5mC]) [compound 1693079]			93	106
1693064: 5-10-5 MOE gapmer ACTTGGTGAATCTTTATTAA, linkages soossssszzsssssosss (antisense eA*e[5mC]eTeT*eG*dG*dT*dG*dA[ms]dA[ms]dT*d[5mC]*dT*dT*dT*eAeT*eT*eA*eA) [compound 1693064]			83	48
1693053: 5-10-5 MOE gapmer TTGGTGAATCTTTATTAAAC, linkages ssssszzzsssssssosss (antisense eT*eT*eG*eG*eT*dG[ms]dA[ms]dA[ms]dT*d[5mC]*dT*dT*dT*dA*dT*eTeA*eA*eA*e[5mC]) [compound 1693053]			99	99
1693071: 5-10-5 MOE gapmer ACTTGGTGAATCTTTATTAA, linkages ssssssszzzzzsssosss (antisense eA*e[5mC]*eT*eT*eG*dG*dT*dG[ms]dA[ms]dA[ms]dT[ms]d[5mC][ms]dT*dT*dT*eAeT*eT*eA*eA) [compound 1693071]			68	66
1693142: 6-10-4 MOE gapmer ACTTGGTGAATCTTTATTAA, linkages sssoosszzzssssszsss (eA*e[5mC]*eT*eTeGeG*dT*dG[ms]dA[ms]dA[ms]dT*d[5mC]*dT*dT*dT*dA[ms]eT*eT*eA*eA) [compound 1693142]			98	92
1693078: 6-10-4 MOE gapmer TTGGTGAATCTTTATTAAAC, linkages ssossszzszssszssoss (eT*eT*eGeG*eT*eG*dA[ms]dA[ms]dT*d[5mC][ms]dT*dT*dT*dA[ms]dT*dT*eAeA*eA*e[5mC]) [compound 1693078]			98	99
1693060: 5-10-5 MOE gapmer TTGGTGAATCTTTATTAAAC, linkages ssssszzzsssszzsosss (antisense eT*eT*eG*eG*eT*dG[ms]dA[ms]dA[ms]dT*d[5mC]*dT*dT*dT[ms]dA[ms]dT*eTeA*eA*eA*e[5mC]) [compound 1693060]			93	93
1693067: 5-10-5 MOE gapmer ACTTGGTGAATCTTTATTAA, linkages ssosssszzzszsssssss (antisense eA*e[5mC]*eTeT*eG*dG*dT*dG[ms]dA[ms]dA[ms]dT*d[5mC][ms]dT*dT*dT*eA*eT*eT*eA*eA) [compound 1693067]			97	162
1693072: 5-10-5 MOE gapmer ACTTGGTGAATCTTTATTAA, linkages ssssosszzzzzsssssss (eA*e[5mC]*eT*eT*eGdG*dT*dG[ms]dA[ms]dA[ms]dT[ms]d[5mC][ms]dT*dT*dT*eA*eT*eT*eA*eA) [compound 1693072]			82	61
1693143: 6-10-4 MOE gapmer ACTTGGTGAATCTTTATTAA, linkages ssossszzzssssszsss (as printed) (sugars from the 5' end e6 d10 e4, all C 5-methyl, backbone not given here; further chemistry not fully specified) [compound 1693143]			76	64
